Read-outs that look alike come from different tables or passages of the source. *1 amine or outer side, *2 acyl side, *3 side chain or, on linkers, in order; H or OH if unused. Where a SMILES comes first, the peptide text is derived from it. Bridges are numbered along the chain shown (N, C = ends). [ ]: non-standard residue; d: D form. The star is where a group is joined. hPhe(3-Cl-4-CF3) = N[C@@H](CCc1ccc(C(F)(F)F)c(Cl)c1)C(=O)O; NPrPhe(4-CF3) = CCCN[C@@H](Cc1ccc(C(F)(F)F)cc1)C(=O)O; NEtAsp = CCN([C@@H](CC(=O)[*:3])C(=O)[*:2])[*:1]; NPrPhe(4-Me) = CCCN[C@@H](Cc1ccc(C)cc1)C(=O)O; X15 = CCCN([C@@H](Cc1ccccc1)C(=O)[*:2])[*:1]; X8 = CCCN([C@@H](COCCC(C)C)C(=O)[*:2])[*:1]; NMeGly(cPent) = CN[C@H](C(=O)O)C1CCCC1; Pro(4,4-F2) = O=C(O)[C@@H]1CC(F)(F)CN1; NEtLeu = CCN[C@@H](CC(C)C)C(=O)O; NMeD = CN[C@@H](CC(=O)O)C(=O)O; NMeL = CN[C@@H](CC(C)C)C(=O)O; NMeNva = CCC[C@H](NC)C(=O)O; Morpholide = C1CN(*)CCO1; NMeA = CN[C@@H](C)C(=O)O; Ac5c = NC1(C(=O)O)CCCC1; Aze = O=C(O)[C@@H]1CCN1; Ac4c = NC1(C(=O)O)CCC1; NEtG = CCNCC(=O)O; Sar = CNCC(=O)O
Key:
[1] = biological target: GDP-bound NRAS wild-type protein (Homo sapiens, UniProt P01111); experiment: Binding to NRAS by surface plasmon resonance (SPR), KD and KD ratio to KRAS
Procedure, shortened: (§1)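 Compound binding is evaluated by SPR single-cycle kinetics, with concentrations added intermittently from low to high for 75 s each. Target surfaces carry GDP-loaded biotinylated Avi-RAS at about 100–300 RU, regenerated after each cycle; temperature 30°C. A 1:1 binding model gives KD.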

HRAS wild-type protein = HRAS wild-type protein (Homo sapiens, UniProt P01112); experiment: Binding to HRAS by surface plasmon resonance (SPR), KD and KD ratio to KRAS
Procedure, shortened: as §1

[2] = tested on: human lung cancer strain NCI-H441; assay type: cell-based
Procedure, shortened: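 Proliferation was scored by […] measured after the reagent was added to cultures kept at 37°C in 5% carbon dioxide.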

[3] = ratio of KD value for GDP-bound NRAS wild-type protein to KD value for KRAS (SPR)
[4] = ratio of KD value for HRAS wild-type protein to KD value for KRAS (SPR)
[5] = ratio of the KD value with respect to GDP-bound NRAS wild-type protein to the KD value with respect to KRAS
[6] = ratio of the KD value with respect to HRAS wild-type protein to the KD value with respect to KRAS
[7] = ratio of KD for GDP-bound NRAS wild-type protein to KD for KRAS
[8] = ratio of KD for HRAS wild-type protein to KD for KRAS

Sequence of GDP-bound NRAS wild-type protein (P01111 whole entry): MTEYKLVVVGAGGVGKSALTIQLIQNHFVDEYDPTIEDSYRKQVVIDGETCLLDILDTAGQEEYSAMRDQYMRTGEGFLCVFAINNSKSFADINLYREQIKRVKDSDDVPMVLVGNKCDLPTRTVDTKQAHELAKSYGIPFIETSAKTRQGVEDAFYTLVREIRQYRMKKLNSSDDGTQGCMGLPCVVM
Sequence of HRAS wild-type protein (P01112 whole entry): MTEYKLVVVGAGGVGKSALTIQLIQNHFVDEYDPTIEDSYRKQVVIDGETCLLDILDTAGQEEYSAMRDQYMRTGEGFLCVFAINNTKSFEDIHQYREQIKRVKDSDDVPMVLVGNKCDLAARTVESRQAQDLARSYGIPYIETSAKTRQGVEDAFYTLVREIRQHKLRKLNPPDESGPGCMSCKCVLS

SMILES | IC50 [2] | NRAS /KRAS [1, 3] | HRAS /KRAS (HRAS wild-type protein; [4]) | NRAS /KRAS [1, 5] | HRAS /KRAS (HRAS wild-type protein; [6]) | NRAS /KRAS [1, 7] | HRAS /KRAS (HRAS wild-type protein; [8]) | IC50 ([2]; NCI-H441 cells, 4 days, CellTiter-Glo, read-out: NCl-H441 IC50)
CCCN1C(=O)[C@@H]2CCN2C(=O)[C@H](C)N(C)C(=O)[C@H]([C@@H](C)CC)NC(=O)[C@H](CC(C)C)N(C)C(=O)C[C@@H](C(=O)N(C)C)N(C)C(=O)[C@H](C2CCCC2)N(C)C(=O)C2(CCC2)NC(=O)[C@@H]2CCCN2C(=O)[C@H](CCc2ccc(C(F)(F)F)c(Cl)c2)NC(=O)CN(C)C(=O)[C@@H]1COCCC(C)C [PP1820] ([NMeL]I[NMeA][Aze][X8][Sar][hPhe(3-Cl-4-CF3)]P[Ac4c][NMeGly(cPent)][NMeD]-NMe2; lactam N-11) | 40.7 nM | C (A compound having a KD ratio of 0.1 or more and less than 3 is denoted as C) | C (A compound having a KD ratio of 0.1 or more and less than 3 is denoted as C) |  |  |  |  | 
CCCN1C(=O)[C@@H]2CCN2C(=O)[C@H](C)N(C)C(=O)[C@H]([C@@H](C)CC)NC(=O)[C@H](CC(C)C)N(CC)C(=O)C[C@@H](C(=O)N2CCOCC2)N(C)C(=O)[C@H](C2CCCC2)N(C)C(=O)C2(CCCC2)NC(=O)[C@@H]2CCCN2C(=O)[C@H](CCc2ccc(C(F)(F)F)c(Cl)c2)NC(=O)CN(C)C(=O)[C@@H]1Cc1ccc(C(F)(F)F)cc1 [PP0151] ([NEtLeu]I[NMeA][Aze][NPrPhe(4-CF3)][Sar][hPhe(3-Cl-4-CF3)]P[Ac5c][NMeGly(cPent)][NMeD]-Morpholide; lactam N-11) | 5.3 nM |  |  |  |  | C (A compound having a KD ratio of 0.1 or more and less than 3 is denoted as C) | C (A compound having a KD ratio of 0.1 or more and less than 3 is denoted as C) | 
CCOC[C@H]1C(=O)N[C@@H]([C@@H](C)CC)C(=O)N(C)CC(=O)N(C)[C@H]2C/C=C\CCN(C2=O)[C@@H](Cc2ccc(C)c(F)c2)C(=O)N(C)CC(=O)N[C@@H](CCc2ccc(C(F)(F)F)c(OC)c2)C(=O)N2C[C@@H](C)C[C@H]2C(=O)NC2(CC(C)(C)C2)C(=O)N(C)[C@@H](C2CCCC2)C(=O)N(C)[C@H](C(=O)N(C)CC)CC(=O)N1C [PP2698] |  |  |  |  |  | A (a compound having 10 or more and less than 20 is denoted as A) | A (a compound having 10 or more and less than 20 is denoted as A) | 30.4 nM
CCCN1C(=O)CN(CC)C(=O)CN(C)C(=O)[C@H]([C@@H](C)CC)NC(=O)[C@H](CC(C)C)N(C)C(=O)C[C@@H](C(=O)N2CCOCC2)N(C)C(=O)[C@H](C2CCCC2)N(C)C(=O)C2(CCCC2)NC(=O)[C@@H]2CCCN2C(=O)[C@H](CCc2ccc(C(F)(F)F)c(Cl)c2)NC(=O)CN(CC)C(=O)[C@@H]1Cc1ccc(C)cc1 [PP0069] ([NMeL]I[Sar][NEtG][NPrPhe(4-Me)][NEtG][hPhe(3-Cl-4-CF3)]P[Ac5c][NMeGly(cPent)][NMeD]-Morpholide; lactam N-11) | 39.7 nM |  |  |  |  | C (A compound having a KD ratio of 0.1 or more and less than 3 is denoted as C) | C (A compound having a KD ratio of 0.1 or more and less than 3 is denoted as C) | 
CCO[C@@H]1C[C@H]2C(=O)NC3(CCC3)C(=O)N(C)[C@@H](C3CCCC3)C(=O)N(CCC3CCCC3)[C@H](C(=O)N(C)C)CC(=O)N(C)[C@@H](CC(C)C)C(=O)N[C@@H]([C@@H](C)CC)C(=O)N(C)CC(=O)N(C)[C@H]3CCCCCN(C3=O)[C@@H](Cc3ccc(F)cc3)C(=O)N(C)CC(=O)N[C@@H](CCc3ccc(C(F)(F)F)c(Cl)c3)C(=O)N2C1 [PP0976] | 1180 nM |  |  |  |  | B (a compound having 3 or more and less than 10 is denoted as B) | B (a compound having 3 or more and less than 10 is denoted as B) | 
CCCN1C(=O)CN(C)C(=O)CN(CC)C(=O)[C@H]([C@@H](C)CC)NC(=O)[C@H](CC(C)C)N(C)C(=O)C[C@@H](C(=O)N(C)C)NC(=O)[C@H](C2CCCC2)N(C)C(=O)C2(CCC2)NC(=O)[C@@H]2CC(F)(F)CN2C(=O)[C@H](CCc2ccc(C(F)(F)F)c(Cl)c2)NC(=O)CN(C)C(=O)[C@@H]1Cc1ccc(C(F)(F)F)cc1 [PP0370] ([NMeL]I[NEtG][Sar][NPrPhe(4-CF3)][Sar][hPhe(3-Cl-4-CF3)][Pro(4,4-F2)][Ac4c][NMeGly(cPent)]D-NMe2; lactam N-11) | 63.2 nM |  |  |  |  | B (a compound having 3 or more and less than 10 is denoted as B) | C (A compound having a KD ratio of 0.1 or more and less than 3 is denoted as C) | 
CCCN1C(=O)CN(C)C(=O)CN(C)C(=O)[C@H]([C@@H](C)CC)NC(=O)[C@H](CC(C)C)N(C)C(=O)C[C@@H](C(=O)N2CCOCC2)N(C)C(=O)[C@H](C2CCCC2)N(C)C(=O)C2(CCCC2)NC(=O)[C@@H]2CCCN2C(=O)[C@H](CCc2ccc(C(F)(F)F)c(Cl)c2)NC(=O)CN(C)C(=O)[C@@H]1Cc1ccccc1 [PP0211] ([NMeL]I[Sar][Sar][X15][Sar][hPhe(3-Cl-4-CF3)]P[Ac5c][NMeGly(cPent)][NMeD]-Morpholide; lactam N-11) | 10.8 nM |  |  |  |  | B (a compound having 3 or more and less than 10 is denoted as B) | C (A compound having a KD ratio of 0.1 or more and less than 3 is denoted as C) | 
CCO[C@@H]1C[C@H]2C(=O)NC3(CCC3)C(=O)N(C)[C@@H](C3CCCC3)C(=O)N(C)[C@H](C(=O)N(C)C)CC(=O)N(C)[C@@H](CC)C(=O)N[C@@H]([C@@H](C)CC)C(=O)N(C)[C@@H](C)C(=O)N(C)[C@H]3C/C=C\CCN(C3=O)[C@@H](Cc3ccc(C(F)(F)F)cc3)C(=O)N(C)CC(=O)N[C@@H](CCc3cc(F)c(C(F)(F)F)c(F)c3)C(=O)N2C1 [PP1054] | 469 nM |  |  |  |  | A (a compound having 10 or more and less than 20 is denoted as A) | B (a compound having 3 or more and less than 10 is denoted as B) | 

Second part, led by results:

IC50 [2] | SMILES | NRAS /KRAS [1, 3] | HRAS /KRAS (HRAS wild-type protein; [4]) | NRAS /KRAS [1, 5] | HRAS /KRAS (HRAS wild-type protein; [6]) | NRAS /KRAS [1, 7] | HRAS /KRAS (HRAS wild-type protein; [8]) | IC50 ([2]; NCI-H441 cells, 4 days, CellTiter-Glo, read-out: NCl-H441 IC50)
1.9 nM | CCO[C@@H]1C[C@H]2C(=O)NC3(CC(C)(C)C3)C(=O)N(C)[C@@H](C3CCCC3)C(=O)N(C)[C@H](C(=O)N(C)CC)CC(=O)N(C)[C@@H](CC)C(=O)N[C@@H]([C@@H](C)CC)C(=O)N(C)CC(=O)N(C)[C@H]3C/C=C\CCN(C3=O)[C@@H](Cc3ccc(C)cc3)C(=O)N(C)CC(=O)N[C@@H](CCc3cc(F)c(C(F)(F)F)c(F)c3)C(=O)N2C1 [PP1886] | A (a compound having 10 or more and less than 20 is denoted as A) | B (a compound having 3 or more and less than 10 is denoted as B) |  |  |  |  | 
10.4 nM | CCC[C@H]1C(=O)N[C@@H]([C@@H](C)CC)C(=O)N(C2CC2)CC(=O)N(C)[C@H]2C/C=C\CCN(C2=O)[C@@H](Cc2ccc(C(F)(F)F)cc2)C(=O)N(C)CC(=O)N[C@@H](CCc2ccc(C(F)(F)F)c(OC)c2)C(=O)N2C[C@H](OCC)C[C@H]2C(=O)NC2(CC(C)(C)C2)C(=O)N(C)[C@@H](C2CCCC2)C(=O)N(C)[C@H](C(=O)N(C)C)CC(=O)N1C [PP2105] |  |  | A (a compound having 10 or more and less than 20 is denoted as A) | A (a compound having 10 or more and less than 20 is denoted as A) |  |  | 
4.4 nM | CCC[C@H]1C(=O)N[C@@H]([C@@H](C)CC)C(=O)N(C)[C@@H](C)C(=O)N2CC[C@H]2C(=O)N(CCC)[C@@H](Cc2ccc(C(F)(F)F)cc2)C(=O)N(C)CC(=O)N[C@@H](CCc2ccc(C(F)(F)F)c(Cl)c2)C(=O)N2CCC[C@H]2C(=O)NC2(CCC2)C(=O)N(C)[C@@H](C2CCCC2)C(=O)N(CC)[C@H](C(=O)N2CCOCC2)CC(=O)N1C [PP1955] ([NMeNva]I[NMeA][Aze][NPrPhe(4-CF3)][Sar][hPhe(3-Cl-4-CF3)]P[Ac4c][NMeGly(cPent)][NEtAsp]-Morpholide; lactam N-11) |  |  | C (A compound having a KD ratio of 0.1 or more and less than 3 is denoted as C) | B (a compound having 3 or more and less than 10 is denoted as B) |  |  | 
72 nM | CCC[C@H]1C(=O)N[C@@H]([C@@H](C)CC)C(=O)N(C)CC(=O)N(C)[C@H]2C/C=C\CCN(C2=O)[C@@H](Cc2ccc(C(F)(F)F)cc2)C(=O)N(C)CC(=O)N[C@@H](CCc2ccc3c(C)c(C)n(C)c3c2)C(=O)N2C[C@H](OCC)C[C@H]2C(=O)NC2(CC(C)(C)C2)C(=O)N(C)[C@@H](C2CCCC2)C(=O)N(C)[C@H](C(=O)N(C)C)CC(=O)N1C [PP2893] |  |  |  |  | A (a compound having 10 or more and less than 20 is denoted as A) | A (a compound having 10 or more and less than 20 is denoted as A) | 
6.1 nM | C#CC[C@H]1C(=O)N[C@@H]([C@@H](C)CC)C(=O)N(C)CC(=O)N(C)[C@H]2C/C=C\CCN(C2=O)[C@@H](Cc2ccc(C(F)(F)F)cc2)C(=O)N(C)CC(=O)N[C@@H](CCc2ccc(C(F)(F)F)c(OC)c2)C(=O)N2C[C@@H](C)C[C@H]2C(=O)NC2(CCC2)C(=O)N(C)[C@@H](C2CCCC2)C(=O)N(C)[C@H](C(=O)N(C)CC)CC(=O)N1C [PP2061] |  |  | AA (a compound having 20 or more is denoted as AA) | A (a compound having 10 or more and less than 20 is denoted as A) |  |  | 
9.6 nM | CCOC[C@H]1C(=O)N[C@@H]([C@@H](C)CC)C(=O)N2CCC[C@H]2C(=O)N(C)[C@H]2C/C=C\CCN(C2=O)[C@@H](Cc2ccc(C(F)(F)F)cc2)C(=O)N(C)CC(=O)N[C@@H](CCc2ccc(C(F)(F)F)c(OC)c2)C(=O)N2C[C@H](OCC)C[C@H]2C(=O)N(C)C2(CCC2)C(=O)N(C)[C@@H](C(CC)CC)C(=O)N(C)[C@H](C(=O)N(C)C)CC(=O)N1C [PP2319] |  |  | AA (a compound having 20 or more is denoted as AA) | A (a compound having 10 or more and less than 20 is denoted as A) |  |  | 
